{"source": "patent US20250302961A1", "about": "“TARGETING MYELOID-DERIVED SUPPRESSOR CELLS (MDSCS) IN BLADDER CANCER TO ENHANCE EFFICACY OF ADOPTIVE CELL THERAPY (ACT)” (H. LEE MOFFITT CANCER CENTER AND RESEARCH INSTITUTE, INC., priority 2022, published 2025)", "test_system": "MB49-OVA bladder tumors", "assay": "Gemcitabine pretreatment and ACT with OT-I T-cells in orthotopic MB49-OVA bladder cancer model, tumor growth by ultrasound", "format": "in vivo, C57BL/6 mice", "settings": "intravesical 500 ug gemcitabine for 30 minutes, then 5×10^6 OT-I T-cells at day 4 (GEM+OT-I)", "procedure": "For murine studies, orthotopic MB49-OVA bladder tumors were collected, stained for MDSCs, and analyzed by flow cytometry. Urine samples from bladder cancer patients were also collected and stained for MDSCs. From mice, purified MDSCs and OT-I T-cells were cocultured and from bladder cancer patients, purified urine MDSCs and CD3-stimulated peripheral blood T-cells were cocultured to assess suppression of T-cell proliferation or IFN-gamma secretion. Mice bearing MB49-OVA tumors were treated with intravesical instillation of gemcitabine and/or OT-I T-cells and tumor growth was monitored via ultrasound. C57BL/6 female mice were initially anesthetized and catheterized (Terumo), then pre-treated orthotopically with Poly-L-Lysine in PBS (50 uL at 1μg/mL) for 10 minutes. Then bladders were washed with 50 uL PBS and mice received intravesical instillation of 1×10^5 MB49-OVA murine bladder cancer cells for 30 minutes. Presence of bladder tumors were confirmed via the Vevo 2100 ultrasound system (FUJIFILM VisualSonics Inc.) 10 days after tumor inoculation and ultrasound was performed 1X per week until mice were euthanized. To evaluate whether targeting MDSCs with gemcitabine (GEM) improves transfer of T cells, C57BL/6 mice received intravesical instillation of MB49-OVA tumor cells and were monitored via ultrasound. Seven-ten days after intravesical instillation of tumor, mice were separated into three treatment groups and an untreated (UNTX) group. The gemcitabine group (GEM) and the combination gemcitabine and OT-I treatment group (GEM+OT-I) received intravesical instillation of 500 ug gemcitabine for 30 minutes. The OT-I treatment group (OT-I) and GEM+OT-I treatment groups received intravesical instillation of 5×10^6 OT-I T-cells for 3 hours at day 4 after instillation of Gem. Tumor growth was measured via ultrasound.", "data": [{"smiles": "Nc1ccn([C@@H]2O[C@H](CO)[C@@H](O)C2(F)F)c(=O)n1", "note": "[gemcitabine]", "values": [{"measurement": "anti-tumor response (tumor growth via ultrasound)", "setting": "mice bearing large MB49-OVA tumors (>50 mm3)", "value": "improved anti-tumor response"}, {"measurement": "anti-tumor response (tumor growth via ultrasound)", "setting": "mice bearing large MB49-OVA tumors (>50 mm3), listed as Gemcitabine", "value": "improves adoptive cell therapy (ACT)"}, {"measurement": "anti-tumor response (tumor growth via ultrasound)", "setting": "mice bearing smaller MB49-OVA tumors (<50 mm3)", "value": "little added benefit to ACT"}]}]}
